For assay [1], the target named is T1, Histone deacetylase 2 (Homo sapiens, UniProt Q92769). Conditions: Sf9, dose 30-100 nM, time 3.5 hrs.
Assay [2] deals with MCF7. The assay is described as follows: Upregulation of DDIT4 gene expression in human MCF7 cells at 2 uM incubated for 24 hrs by RT-qPCR analysis. The class given is functional, cell-based. For orientation: Real-time PCR tracks product formation cycle by cycle.
The test system of assay [3] is MCF7. The assay is described as follows: Upregulation of GADD45A gene expression in human MCF7 cells at 2 uM incubated for 24 hrs by RT-qPCR analysis. The class given is functional, cell-based.
Assay [4] deals with MCF7. In words: Downregulation of E2F1 gene expression in human MCF7 cells at 2 uM incubated for 24 hrs by microarray analysis. The class given is functional, cell-based.
Assay [5] deals with MCF7. The assay is described as follows: Downregulation of CCNE2 gene expression in human MCF7 cells at 2 uM incubated for 24 hrs by microarray analysis. The class given is functional, cell-based.
Assay [6] concerns the target T1, Histone deacetylase 2. The assay is described as follows: Inhibition of full-length recombinant human C-terminal GST tagged HDAC2 expressed in Sf9 insect cells using aminoluciferin peptide substrate preincubated for 3 hrs followed by substrate addition and measured after 30 mins by HDAC-Glo I/II chemiluminescence assay. The format is cell-based.
For assay [7], the system named is MCF7. In words: cells. The class given is functional. Conditions: Homo sapiens, time 48 hrs.
Description: Anticancer activity against human MCF7 cells overexpressing HDAC1 and HDAC2 assessed as inhibition of cell growth incubated for 48 hrs by sulforhodamine B assay
Assay [8] addresses T2, Histone deacetylase (Homo sapiens) (UniProt Q13547+O15379+Q9UBN7+Q92769+Q9UQL6+Q8WUI4+Q9BY41+Q96DB2+P56524+Q9UKV0+Q969S8). The settings on record: MCF7, dose 10.0 µM, time <= 48.0 hrs.
Assay [9] deals with MCF7. The assay is described as follows: Downregulation of E2F8 gene expression in human MCF7 cells at 2 uM incubated for 24 hrs by microarray analysis. The class given is functional, cell-based.
For assay [10], the target named is T2, Histone deacetylase (Homo sapiens). The settings on record: MCF7, dose 1.0 µM, time <= 48.0 hrs.
In assay [11] the target is T3, Protein deacetylase HDAC6 (Homo sapiens) (UniProt Q9UBN7).
T3 sequence (whole entry): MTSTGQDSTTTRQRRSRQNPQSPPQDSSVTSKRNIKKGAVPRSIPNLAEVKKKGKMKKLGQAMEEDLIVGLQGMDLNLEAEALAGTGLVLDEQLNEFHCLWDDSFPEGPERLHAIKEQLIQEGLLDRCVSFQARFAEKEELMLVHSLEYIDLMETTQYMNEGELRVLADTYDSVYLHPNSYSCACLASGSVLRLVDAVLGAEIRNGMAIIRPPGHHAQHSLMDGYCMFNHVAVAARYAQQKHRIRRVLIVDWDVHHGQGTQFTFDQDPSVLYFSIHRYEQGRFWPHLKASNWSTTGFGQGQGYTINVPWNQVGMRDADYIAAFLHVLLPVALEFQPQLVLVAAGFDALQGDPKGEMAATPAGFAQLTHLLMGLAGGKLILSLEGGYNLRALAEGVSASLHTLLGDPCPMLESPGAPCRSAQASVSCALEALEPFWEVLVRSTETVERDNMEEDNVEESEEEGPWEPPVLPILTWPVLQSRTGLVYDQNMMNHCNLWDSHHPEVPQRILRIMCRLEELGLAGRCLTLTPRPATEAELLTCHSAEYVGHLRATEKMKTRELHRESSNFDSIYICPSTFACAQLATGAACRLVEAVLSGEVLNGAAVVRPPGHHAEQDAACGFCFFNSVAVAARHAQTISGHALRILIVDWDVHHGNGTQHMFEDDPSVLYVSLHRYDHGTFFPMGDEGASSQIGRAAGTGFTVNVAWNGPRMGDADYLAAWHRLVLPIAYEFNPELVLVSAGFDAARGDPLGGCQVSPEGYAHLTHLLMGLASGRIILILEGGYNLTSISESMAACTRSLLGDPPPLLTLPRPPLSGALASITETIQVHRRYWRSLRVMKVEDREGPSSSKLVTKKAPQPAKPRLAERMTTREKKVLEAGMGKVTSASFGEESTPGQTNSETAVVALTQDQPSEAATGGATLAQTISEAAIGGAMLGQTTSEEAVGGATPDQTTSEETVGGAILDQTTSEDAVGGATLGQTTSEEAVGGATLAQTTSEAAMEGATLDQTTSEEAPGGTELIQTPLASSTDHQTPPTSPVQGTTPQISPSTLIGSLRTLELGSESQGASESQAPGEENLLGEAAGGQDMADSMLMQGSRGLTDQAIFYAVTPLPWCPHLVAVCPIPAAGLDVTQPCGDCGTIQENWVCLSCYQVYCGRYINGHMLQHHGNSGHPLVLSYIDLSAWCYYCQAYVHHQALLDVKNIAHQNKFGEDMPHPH
The assay is described as follows: Inhibition of full-length recombinant human C-terminal GST tagged HDAC6 expressed in Sf9 insect cells using aminoluciferin peptide substrate preincubated for 3 hrs followed by substrate addition and measured after 30 mins by HDAC-Glo I/II chemiluminescence assay. The settings on record: time 3.5 hrs.

Assay [12] has as its system MCF7. The assay is described as follows: Upregulation of TES gene expression in human MCF7 cells at 2 uM incubated for 24 hrs by RT-qPCR analysis. The format is functional, cell-based.
Assay [13] concerns the target Histone deacetylase 4 (Homo sapiens) (UniProt P56524). In words: Inhibition of recombinant human HDAC4 using fluorogenic substrate preincubated for 3 hrs followed by substrate addition and measured after 30 mins by fluorescence analysis. The settings on record: time 3.5 hrs.
The target of assay [14] is Histone deacetylase 9 (Homo sapiens) (UniProt Q9UKV0). The assay is described as follows: Inhibition of recombinant human HDAC9 using fluorogenic substrate preincubated for 3 hrs followed by substrate addition and measured after 30 mins by fluorescence analysis. The settings on record: time 3.5 hrs.
The subject of assay [15] is MCF7. In words: Upregulation of ERRF1 gene expression in human MCF7 cells at 2 uM incubated for 24 hrs by RT-qPCR analysis. The format is functional, cell-based.
Assay [16] addresses T4, Histone deacetylase 1 (Homo sapiens, UniProt Q13547). The assay is described as follows: Inhibition of full-length recombinant human C-terminal GST tagged HDAC1 expressed in Sf9 insect cells using aminoluciferin peptide substrate at 10 to 100 nM preincubated for 3 hrs followed by substrate addition and measured after 30 mins by HDAC-Glo I/II chemiluminescence assay. Conditions: dose 10-100 nM, time 3.5 hrs.

Assay [17] has as its target T4, Histone deacetylase 1. In words: Inhibition of full-length recombinant human C-terminal GST tagged HDAC1 expressed in Sf9 insect cells using aminoluciferin peptide substrate preincubated for 3 hrs followed by substrate addition and measured after 30 mins by HDAC-Glo I/II chemiluminescence assay.
Assay [18] concerns MCF7. The assay is described as follows: Upregulation of TP53INP1 gene expression in human MCF7 cells at 2 uM incubated for 24 hrs by RT-qPCR analysis. The class given is functional, cell-based.

Structures are written as SMILES. Calls of active or inactive are those of the source. The calls are words filed in the database; no cut-off is given here.

T4 sequence (Q13547 whole entry): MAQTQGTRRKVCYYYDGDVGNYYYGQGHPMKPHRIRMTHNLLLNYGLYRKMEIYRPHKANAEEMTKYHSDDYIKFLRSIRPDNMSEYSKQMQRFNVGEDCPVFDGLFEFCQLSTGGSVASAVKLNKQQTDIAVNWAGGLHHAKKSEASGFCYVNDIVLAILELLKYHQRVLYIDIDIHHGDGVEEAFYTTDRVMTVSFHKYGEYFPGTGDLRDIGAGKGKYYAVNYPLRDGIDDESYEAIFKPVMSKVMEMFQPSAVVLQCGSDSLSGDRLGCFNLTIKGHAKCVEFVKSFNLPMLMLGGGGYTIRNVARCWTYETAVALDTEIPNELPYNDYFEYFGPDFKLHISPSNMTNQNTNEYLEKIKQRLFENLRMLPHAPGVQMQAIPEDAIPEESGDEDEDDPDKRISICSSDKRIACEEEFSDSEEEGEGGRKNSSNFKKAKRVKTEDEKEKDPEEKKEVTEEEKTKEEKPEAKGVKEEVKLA
Histone deacetylase 4 (Homo sapiens), sequence (P56524 whole entry): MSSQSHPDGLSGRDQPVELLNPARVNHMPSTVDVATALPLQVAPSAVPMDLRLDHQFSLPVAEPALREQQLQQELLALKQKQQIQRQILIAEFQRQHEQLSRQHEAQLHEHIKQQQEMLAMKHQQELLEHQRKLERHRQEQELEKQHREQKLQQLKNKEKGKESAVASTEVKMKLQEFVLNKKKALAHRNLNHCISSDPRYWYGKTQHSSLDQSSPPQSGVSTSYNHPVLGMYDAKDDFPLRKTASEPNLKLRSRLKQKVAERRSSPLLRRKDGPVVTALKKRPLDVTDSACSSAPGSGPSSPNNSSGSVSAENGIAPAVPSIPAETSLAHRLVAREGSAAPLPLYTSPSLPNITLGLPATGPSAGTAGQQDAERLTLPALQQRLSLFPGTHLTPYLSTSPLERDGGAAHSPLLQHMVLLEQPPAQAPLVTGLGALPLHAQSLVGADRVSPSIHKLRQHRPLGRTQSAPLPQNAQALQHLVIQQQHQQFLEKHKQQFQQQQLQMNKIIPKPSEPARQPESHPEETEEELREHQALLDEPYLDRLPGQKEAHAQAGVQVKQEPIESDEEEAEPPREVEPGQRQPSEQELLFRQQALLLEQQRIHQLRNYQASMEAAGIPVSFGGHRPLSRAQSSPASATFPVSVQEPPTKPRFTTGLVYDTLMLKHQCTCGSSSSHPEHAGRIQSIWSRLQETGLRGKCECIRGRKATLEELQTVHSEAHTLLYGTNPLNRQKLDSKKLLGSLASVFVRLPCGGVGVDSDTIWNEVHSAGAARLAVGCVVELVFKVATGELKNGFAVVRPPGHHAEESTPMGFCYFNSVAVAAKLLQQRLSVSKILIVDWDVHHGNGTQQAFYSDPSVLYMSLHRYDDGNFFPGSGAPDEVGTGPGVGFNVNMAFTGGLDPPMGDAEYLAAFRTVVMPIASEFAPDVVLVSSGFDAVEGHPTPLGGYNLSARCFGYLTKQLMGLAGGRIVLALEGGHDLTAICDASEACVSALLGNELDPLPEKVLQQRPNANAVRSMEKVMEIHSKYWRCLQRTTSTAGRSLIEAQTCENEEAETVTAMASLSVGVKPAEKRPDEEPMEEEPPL
Histone deacetylase 9 (Homo sapiens), sequence (Q9UKV0 whole entry): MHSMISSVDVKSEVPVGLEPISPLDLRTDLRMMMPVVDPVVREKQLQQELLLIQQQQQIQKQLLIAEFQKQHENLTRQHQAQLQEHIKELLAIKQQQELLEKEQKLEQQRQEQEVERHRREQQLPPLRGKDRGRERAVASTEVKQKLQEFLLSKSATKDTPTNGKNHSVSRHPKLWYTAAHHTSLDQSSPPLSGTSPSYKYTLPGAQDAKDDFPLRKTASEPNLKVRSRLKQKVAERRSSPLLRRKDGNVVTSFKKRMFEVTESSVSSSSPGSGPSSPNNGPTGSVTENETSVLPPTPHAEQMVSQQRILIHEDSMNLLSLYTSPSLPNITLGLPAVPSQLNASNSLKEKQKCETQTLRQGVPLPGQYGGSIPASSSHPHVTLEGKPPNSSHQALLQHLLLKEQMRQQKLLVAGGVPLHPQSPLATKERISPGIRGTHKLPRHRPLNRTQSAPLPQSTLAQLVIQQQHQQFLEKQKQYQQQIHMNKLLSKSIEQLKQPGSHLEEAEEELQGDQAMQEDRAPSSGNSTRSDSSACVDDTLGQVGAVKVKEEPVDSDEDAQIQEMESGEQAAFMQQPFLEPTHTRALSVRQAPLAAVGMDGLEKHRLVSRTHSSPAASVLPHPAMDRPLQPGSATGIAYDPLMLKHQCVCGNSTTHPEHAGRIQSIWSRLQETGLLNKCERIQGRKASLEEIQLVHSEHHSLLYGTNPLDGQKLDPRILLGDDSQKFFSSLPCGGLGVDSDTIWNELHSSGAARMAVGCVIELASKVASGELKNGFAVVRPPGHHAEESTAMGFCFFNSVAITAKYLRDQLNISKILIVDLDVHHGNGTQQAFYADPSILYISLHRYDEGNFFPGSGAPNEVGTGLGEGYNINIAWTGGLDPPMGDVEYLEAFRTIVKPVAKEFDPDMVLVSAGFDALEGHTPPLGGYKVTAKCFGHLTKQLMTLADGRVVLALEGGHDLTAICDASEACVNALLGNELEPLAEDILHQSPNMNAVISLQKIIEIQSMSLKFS
T1 sequence (Q92769 whole entry): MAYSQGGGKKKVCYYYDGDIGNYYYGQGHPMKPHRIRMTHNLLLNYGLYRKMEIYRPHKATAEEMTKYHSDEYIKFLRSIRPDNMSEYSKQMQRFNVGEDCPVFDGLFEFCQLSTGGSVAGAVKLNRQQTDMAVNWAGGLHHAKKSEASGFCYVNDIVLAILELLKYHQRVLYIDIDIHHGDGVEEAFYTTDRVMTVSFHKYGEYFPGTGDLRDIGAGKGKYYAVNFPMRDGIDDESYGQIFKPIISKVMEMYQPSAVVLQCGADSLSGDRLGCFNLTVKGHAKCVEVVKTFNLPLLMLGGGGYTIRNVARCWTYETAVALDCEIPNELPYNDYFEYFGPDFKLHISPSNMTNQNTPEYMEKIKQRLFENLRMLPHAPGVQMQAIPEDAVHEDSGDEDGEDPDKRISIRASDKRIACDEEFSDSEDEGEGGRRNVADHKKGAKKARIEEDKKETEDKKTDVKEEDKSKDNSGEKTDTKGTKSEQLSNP

As for `Nc1ccc(-c2cccs2)cc1NC(=O)c1ccc(-c2cn(CCc3ccccn3)nn2)cc1`, at Histone deacetylase 2 [1], the inhibition result is “Dose-Dependent Effect”. In addition, the result with MCF7 [2], in the assay on MCF7 [3], in the assay with MCF7 [4], in the assay with MCF7 [5], in the assay on MCF7 [9] and in the assay on MCF7 [12] was Active. Moreover, the outcome in the assay on MCF7 [15] and with MCF7 [18] was Active. In addition, the values for the IC50 on Histone deacetylase 2 [6] and at Histone deacetylase 1 [17] were 17 nM and 6.5 nM, respectively. Also, halving of growth in the assay on MCF7 [7] (GI50) required 52500 nM. For the same compound, the TDI result in [8] and in assay [10] was “Active” in each case. Further, the inhibition result in assay [11], in assay [13] and in [14] was “inactive” in each case. The inhibition result on Histone deacetylase 1 [16] was “Active”.
Regarding `Nc1ccc(-c2cccs2)cc1NC(=O)c1ccc(-c2cn(C[S+]([O-])c3ccccc3)nn2)cc1` (centres undefined), the inhibition entry at Histone deacetylase 2 [1] was “Dose-Dependent Effect”. Besides, the result in the assay on MCF7 [2], in the assay on MCF7 [3], in the assay on MCF7 [4], in the assay with MCF7 [5], in the assay with MCF7 [9] and in the assay on MCF7 [12] was Active. Further, the result with MCF7 [15] and with MCF7 [18] was Active. Further, the IC50 (usually the concentration that gives 50% inhibition) at Histone deacetylase 2 [6] is 19 nM; at Histone deacetylase 1 [17] it was 8.2 nM. Further, the GI50 – broadly, the concentration at which growth is held to half of that of the control – in the assay on MCF7 [7] turned out to be 1860 nM. Also, the TDI entry in assay [8] and in assay [10] was “Active” throughout. The inhibition result in assay [11], in [13] and in assay [14] was “inactive” each time. Further, at Histone deacetylase 1 [16], the inhibition result is “Active”.
Regarding `Nc1ccc(-c2cccs2)cc1NC(=O)c1ccc(-c2cn(CS(=O)(=O)c3ccccc3)nn2)cc1`, the inhibition entry on Histone deacetylase 2 [1] was “Dose-Dependent Effect”. The result in the assay with MCF7 [2], in the assay with MCF7 [3], with MCF7 [4], with MCF7 [5], in the assay with MCF7 [9] and in the assay on MCF7 [12] was Active. For the same compound, the outcome with MCF7 [15] and in the assay with MCF7 [18] was Active. Besides, the IC50 stood at 68 nM on Histone deacetylase 2 [6] and 12 nM on Histone deacetylase 1 [17]. Also, in the assay with MCF7 [7], the 50% growth inhibitory concentration (GI50) was 43 nM. For the same compound, the TDI result in assay [8] and in [10] was “Active” throughout. Further, the inhibition entry in assay [11], in assay [13] and in assay [14] was “inactive” each time. Moreover, the inhibition result at Histone deacetylase 1 [16] was “Active”.

For the origin of these results see ChEMBL document CHEMBL5390237, “Discovery of Selective Histone Deacetylase 1 and 2 Inhibitors: Screening of a Focused Library Constructed by Click Chemistry, Kinetic Binding Analysis, and Biological Evaluation” (J Med Chem, 2023).
